Data reported in US20080286254A1, “Composition comprising licorice polyphenol” (Kaneka Corporation, priority 2007, published 2008).

System: 3T3-L1 cells
Assay: Lipid decomposition (glycerol secretion) in in vitro obese model of differentiated 3T3-L1 adipocytes
Type: cell-based
Conditions: 24 hr
Method: As adipocyte precursor cells, 3T3-L1 cells (Dainippon Sumitomo Pharmaceuticals Co., Ltd.) were used. The 3T3-L1 cells were cultured in passage medium A (10% bovine serum-added DMEM supplemented with penicillin[…]streptomycin) in a 75 cm^2 flask. The 3T3-L1 cells were plated in a 24 well plate at 20000 cells/well. The next day, the medium was changed to passage medium B (10% fetal calf serum-added high glucose DMEM supplemented with penicillin-streptomycin) and, 48 hr later, the medium was changed to differentiation induction medium. The differentiation induction medium contained passage medium B as a base medium, and dexamethasone, isobutylmethylxanthine, insulin and pioglitazone at a final concentration of 0.5 μM, 500 μM, 8 μg/ml and 2 μM, respectively. Further, 48 hr later, the medium was changed to a differentiation promoting medium. The differentiation promoting medium contained passage medium B as a base medium, and insulin and pioglitazone at a final concentration of 8 μg/ml and 2 μM, respectively. 48 hr later, the medium was changed to passage medium B. Thereafter, the medium was changed to passage medium B every other day. 7 to 10 days later, differentiation of 3T3-L1 cells into mature adipocyte cells were confirmed with a phase contrast microscope, and the cells were subjected to the following test.
After removing passage medium B by an aspirator, the cells were washed with KRB-HEPES (128 mM NaCl, 10 mM NaH2PO4, 4.7 mM KCl, 1.25 mM CaCl2, 1.25 mM MgCl2, 50 mM HEPES, pH 7.4). The licorice hydrophobic extract (50 mg/ml) of Example 1 and α-lipoic acid (100 mM) as an antioxidant ingredient were each dissolved in DMSO. […] The glycerol concentration was measured using Glycerol Reagent A manufactured by Zen-Bio, and the glycerol amount per protein concentration of the cell was calculated and compared. […]
After removing passage medium B, the cells were washed with KRB-HEPES. […] The glycerol concentration was measured using Glycerol Reagent A manufactured by Zen-Bio, and the glycerol amount per protein concentration of the cell was calculated and compared. […]

## C[N+](C)(C)CC(O)CC(=O)[O-] (stereo not drawn) [carnitine]
Table 3 (Example 11), carnitine 80 μM
  glycerol secretion amount: 43.5 ± 1.9 μM/mg protein

## O=c1c(-c2ccc(O)cc2)coc2cc(O)cc(O)c12 [genistein]
Table 2 (Example 10), genistein 10 μM
  glycerol secretion amount: 111.1 ± 6.3 μM/mg protein

## O=C(O)CCCCC1CCSS1 (stereo not drawn) [α-lipoic acid]
Table 1 (Example 9), α-lipoic acid 30 μM
  glycerol secretion amount: 89.6 ± 4.8 μM/mg protein
